The results in this text go back to ChEMBL document CHEMBL1123935 (J Med Chem, 1987).

This experiment deals with D(2) dopamine receptor (Rattus norvegicus, UniProt P61169). The experiment is described as follows: Compound was tested for inhibitory activity against the binding of [3H]spiperone to Dopamine receptor D2 in rat striatal membranes. It is filed as cell membranes, Membrane.

What is called Ki is a measure of affinity in units of concentration, obtained from inhibition or displacement. A high value points to weaker binding.

D(2) dopamine receptor, sequence (P61169 whole entry): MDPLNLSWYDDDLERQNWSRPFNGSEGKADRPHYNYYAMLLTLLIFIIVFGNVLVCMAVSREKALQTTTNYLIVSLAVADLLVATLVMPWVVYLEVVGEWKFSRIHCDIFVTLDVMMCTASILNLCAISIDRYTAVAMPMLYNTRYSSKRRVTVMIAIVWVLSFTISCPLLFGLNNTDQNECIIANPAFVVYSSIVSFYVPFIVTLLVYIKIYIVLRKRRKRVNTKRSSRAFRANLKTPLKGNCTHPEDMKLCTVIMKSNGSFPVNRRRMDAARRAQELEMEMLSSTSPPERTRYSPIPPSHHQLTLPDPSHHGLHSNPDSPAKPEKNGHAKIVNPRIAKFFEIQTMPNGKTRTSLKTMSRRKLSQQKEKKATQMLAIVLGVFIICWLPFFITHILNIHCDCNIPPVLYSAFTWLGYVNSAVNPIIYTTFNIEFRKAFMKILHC

Molecule `C[N+](C)(C)CCCN1c2ccccc2Sc2ccc(Cl)cc21` registered a Ki of 2.15 µM.
Turning to `C[S+](C)CCCN1c2ccccc2Sc2ccc(Cl)cc21`, the affinity corresponds to a Ki of 0.28 µM.
